Tests used:
[1] = tested on: HCT116DICER^ex5 cells; test: Cell cycle FACS screen of pools of three siRNAs per gene (G1 after nocodazole, G2/M after aphidicolin); format: cell-based, human; conditions: pools of 3 siRNAs/gene at 100 nM final, FACS 66 hours post-transfection, average of two experiments
From the text: To identify targets whose modulation influences the cell cycle arrest phenotype observed with miR-192 expression, the 62 candidate genes identified as described in Example 2 and shown in TABLE 3 were silenced individually by transfecting a pool of 3 gene-specific siRNA duplexes per gene (each directed to a different region of the gene) into HCT116DICER^ex5 cells. The siRNA duplex sequences (3 duplexes per gene) used to target each of the 62 genes are shown below in TABLE 5. The siRNA duplex oligonucleotides were obtained from Sigma-Genesys, as described in Linsley, P. S. et al., Mol Cell Biol 27:2240-2252 (2007).
HCT116DICER^ex5 cells were transiently transfected with pools of three different siRNA duplexes per gene at a 100 nM final concentration using Lipofectamine RNAiMax (Invitrogen), according to the manufacturer's instructions. At 48 hours post transfection, cells were left untreated, treated with nocodazole (100 ng/mL, Sigma-Aldrich), or treated with aphidicolin (2 μg/mL, Sigma-Aldrich) for an additional 18 hours before harvesting. The cells transfected with the siRNA pools were then screened by FACS analysis as described in Example 3 for the percentage of cells arrested in G1 or G2/M as compared to the negative siRNA luciferase control.
The siRNA pools tested in this screen were ranked according to the percentage of cells arrested in G1 or G2/M following transfection, as compared with a negative control siRNA targeting luciferase. To avoid being misled by possible RNAi off-target effects, the siRNA pools were deconvoluted to identify genes for which at least 2 different siRNA duplexes from the pool caused the cell cycle arrest phenotype (data not shown).
TABLE 6 summarizes the data obtained 66 hours post-transfection by FACS analysis showing the cell cycle distribution of the HCT116DICER^ex5 cells transfected with siRNA pools of 3 siRNAs/gene. Each pool was analyzed in two separate experiments, and the average percentage of the cells trapped in G1 (following nocodazole treatment), or G2/M (following aphidicolin treatment) are shown in TABLE 6.

[2] = tested on: CDC7, LMNB2, MAD2L1 and CUL5; test: Western blot analysis; format: cell-based, human; conditions: HCT116DICER^ex5 cells, 10 nM, data not shown
Description: HCT116DICER^ex5 cells were transfected with 10 nM siRNA against luciferase or 10 nM miR-192 or 10 nM miR-192 mutant, and lysates were prepared at 28 hours or 48 hours post-transfection. For immunoblotting, 30 μg of whole cell lysate extracted in a modified RIPA buffer (150 mM NaCl, 50 mM Tris pH 7.4, 1 mM EDTA, 1% NP-40, 0.1% SDS) was used per sample. CDC7, LMNB2, MAD2L1 and CUL5 were detected by Western blot using anti-CDC7 (sc-56275, Santa Cruz Biotechnology Inc.), anti-LMNB2 (MAB3536, Millipore), anti-MAD2L1 (ab55452, Abcam) and anti-CUL5 (Invitrogen) antibodies, and protein levels were compared to the level of β-actin expression as detected by an anti-β-actin antibody (Abcam).

miR-192: Synthetic duplex mimetic of miR-192, guide CUGACCUAUGAAUUGACAGCC (SEQ ID NO:1), passenger SEQ ID NO:7 (sense CUGUCAAUUCAUCGGUCUGAU; listed as RNA, chemistry not given here; listed as Homo sapiens)
% G2 (Avg), Aphidicholin+ ([1]; aphidicolin 2 μg/mL 18 h): 54.9%
% G1 (Avg), Nocodazole+ ([1]; nocodazole 100 ng/mL 18 h): 43.6%
protein level [2]: downregulated

Source: patent US20110118337A1, “Method of Using Compositions Comprising MIR-192 and/or MIR-215 for the Treatment of Cancer” (Merck Sharp & Dohme Corp., priority 2008, published 2011)
